Measured values taken from paper PMC10000267, “ALA‐A2 Is a Novel Anticancer Peptide Inspired by Alpha‐Lactalbumin: A Discovery from a Computational Peptide Library, In Silico Anticancer Peptide Screening and In Vitro Experimental Validation” (Global Challenges, 2023).
Residues, ends and D or L forms follow the SMILES beside them.

Columns and labels:
[1] = system: Human red blood cells; test: Ex vivo hemolysis assay (RBC lysis assay); assay type: cell-based; conditions: 1 h, peptide 200 µM; for percent hemolysis: ≈0.8% v/v human RBC suspension in 0.9% normal saline, room temperature, absorbance 415 nm, relative to 1% Triton X‐100, blood of three healthy individuals, mean ± SD
Experimental: The hemolysis assay was as described previously.^[ [30] ^] After informed consent, peripheral blood (3 mL) was collected from three healthy individuals into heparin tubes (BD Biosciences, NJ, USA). The specimen was centrifuged at 2000 × g for 5 min at room temperature, and the plasma was discarded. The RBCs were washed twice with PBS and then resuspended in 0.9% normal saline solution at a volume equivalent to that of the original plasma. Approximately 0.8% v/v RBC suspension was incubated with the peptides at 200 µM (100 µL final volume) in a U‐bottom 96‐well plate at room temperature for 1 h with agitation. 1% v/v Triton X‐100 was applied as a positive control. The untreated condition served as the blank control. After 1 h incubation, the supernatants were collected by centrifuging at 2000 × g for 5 min at room temperature. The absorbance of hemoglobin in the supernatant was measured at 415 nm. The hemolysis percentage was calculated as follows: (2) % Hemolysis = [sample absorbance−blank control/positive control−blank control] × 100

[2] = system: A549 lung cancer cells; test: Confocal microscopy: cell internalization and membrane integrity (PI); assay type: cell-based, human; conditions: A549, peptide 200 µM 24 h, Triton X‐100 0.5% v/v 10 min, PI staining
Experimental: All cells were then incubated with PI (1:2000) and Hoechst 33342 (1:5000) in the culture medium at 37 °C in 5% CO2 for 15 min. The cells were washed with PBS twice before being fixed with 4% paraformaldehyde (PFA) in PBS. The fixed cells were washed twice with PBS and mounted in 20% glycerol in PBS. […] Thereafter, the cells were stained with PI for 15 min at room temperature, washed with PBS, and then mounted with 20% glycerol in PBS. Internalization was visualized by confocal fluorescence microscopy (Nikon Instruments, Inc., Melville, NY, USA).

[3] = system: A549 lung adenocarcinoma cells; test: In vitro cancer cytotoxicity (MTT assay); assay type: cell-based, human; conditions: A549, peptide 200 µM, 24 h
Experimental: (§1) All cell lines were obtained from the American Type Culture Collection (ATCC, Manassas, VA, USA). The A549 lung adenocarcinoma (ATCC CCL‐185TM), MDA‐MB‐231 triple‐negative breast adenocarcinoma (ATCC HTB‐26TM), and SH‐SY5Y neuroblastoma (ATCC CRL‐2266TM) cell lines were cultured in Dulbecco's Modified Eagle's Medium (DMEM)‐high glucose (Gibco, Thermo Fisher Scientific, MA, USA). HT29 colon adenocarcinoma (ATCC HTB‐38) cell lines were maintained in DMEM/Nutrient Mixture F‐12 (Gibco). K562 chronic myeloid leukemia (ATCC CRL‐3344) were grown in Roswell Park Memorial Institute Medium 1640 (Gibco). The cells were cultured in medium supplemented with 10% fetal bovine serum (Gibco) and 1× penicillin/streptomycin (Gibco) and incubated in a 5% CO2 incubator with saturated humidity.
(§2) The protocol previously described by Chiangjong et al. and Baindara et al.^[ [5], [29] ^] was modified for use in determining the cytotoxicity of peptides on the various cancer types. Adherent cells were seeded at 1 × 10^4 cells/well into a 96‐well plate 24 h prior to replacing the media containing the peptide of interest. Suspended cells were seeded at 1 × 10^4 cells/well in the media containing the peptide of interest. Five human cell lines, including lung cancer (A549), colon cancer (HT29), breast cancer (MDA‐MB‐231), neuroblastoma (SH‐SY5Y), and leukemia (K562) cells, were treated with the culture media containing the peptides at 200 µM for 24 h. Cell viability was then determined using Cell Proliferation Kit I, MTT (Roche Diagnostics GmbH, Mannheim, Germany): MTT labeling reagent (10 µL) was added to each well and incubated at 37 °C in a 5% CO2 atmosphere for 4 h. After incubation, 100 µL solubilizing solution was added to each well and incubated at 37 °C in 5% CO2 overnight. The absorbance at 570 nm (A 570) was measured for each well. The percentage of cell viability was calculated as: (1) % Cell Viability=[A570 of treated cells − A570 of media/A570 of untreated cells−A570 of media] × 100
(§3) To evaluate dose‐dependency, ≈1 × 10^4 cells/well were cultured in media containing ALA‐A2 at 0, 6.25, 12.5, 25, 50, 100, 200, and 400 µM in a 96‐well plate for 24 h. Cell viability was determined by the MTT assay, as above.

[4] = system: HT29 colon adenocarcinoma cells; test: In vitro cancer cytotoxicity (MTT assay); assay type: cell-based, human; conditions: HT29, peptide 200 µM, 24 h
Experimental: as §1, §2, §3

[5] = system: MDA‐MB‐231 breast cancer cells; test: In vitro cancer cytotoxicity (MTT assay); assay type: cell-based, human; conditions: MDA‐MB‐231, peptide 200 µM, 24 h
Experimental: as §1, §2

[6] = system: SH‐SY5Y neuroblastoma cells; test: In vitro cancer cytotoxicity (MTT assay); assay type: cell-based, human; conditions: peptide 200 µM, 24 h
Experimental: as §1, §2

[7] = system: K562 leukemia cells; test: In vitro cancer cytotoxicity (MTT assay); assay type: cell-based, human; conditions: K562, peptide 200 µM, 24 h
Experimental: as §1, §2

Compound | hemolytic effect (in words) ([1]; human RBCs, Triton X‐100 1% v/v) | membrane integrity / propidium iodide internalization (in words) [2] | anticancer effect (in words) [3] | anticancer effect (in words) [4] | anticancer effect (in words) [5] | anticancer effect (in words) [6] | anticancer effect (in words) [7] | percent hemolysis [1]
Triton X‐100 [reference compound] | completely lysed | is internalized | – | – | – | – | – | –
CC[C@H](C)[C@H](NC(=O)CNC(=O)[C@@H](NC(=O)[C@H](CC(C)C)NC(=O)[C@H](Cc1ccccc1)NC(=O)[C@H](CC(C)C)NC(=O)[C@@H]1CCCN1C(=O)[C@@H](NC(=O)[C@H](Cc1ccccc1)NC(=O)[C@H](Cc1ccccc1)NC(=O)[C@@H](N)CCCNC(=N)N)C(C)C)C(C)C)C(=O)N[C@@H](CC(C)C)C(=O)N[C@@H](Cc1ccccc1)C(=O)N1CCC[C@H]1C(=O)N[C@@H](C)C(=O)N[C@H](C(=O)N[C@@H](CC(C)C)C(=O)N[C@@H](C)C(=O)N[C@@H](CCCCN)C(=O)N[C@@H](CCC(N)=O)C(=O)N[C@@H](Cc1ccccc1)C(=O)N[C@H](C(=O)N[C@@H](CCCCN)C(=O)N[C@@H](CS)C(=O)O)[C@@H](C)O)[C@@H](C)CC [ALA‐A3] (H-RFFVPLFLVGILFPAILAKQFTKC-OH) | – | – | did not exhibit a substantial anticancer effect | did not exhibit a substantial anticancer effect | did not exhibit a substantial anticancer effect | did not exhibit a substantial anticancer effect | did not exhibit a substantial anticancer effect | 1.3% ± 1.2%
CC[C@H](C)[C@H](NC(=O)CNC(=O)[C@@H](NC(=O)[C@H](CC(C)C)NC(=O)[C@H](Cc1ccccc1)NC(=O)[C@H](CC(C)C)NC(=O)[C@@H]1CCCN1C(=O)[C@@H](NC(=O)[C@H](Cc1ccccc1)NC(=O)[C@H](Cc1ccccc1)NC(=O)[C@@H](N)CCCNC(=N)N)C(C)C)C(C)C)C(=O)N[C@@H](CC(C)C)C(=O)N[C@@H](Cc1ccccc1)C(=O)N1CCC[C@H]1C(=O)N[C@@H](C)C(=O)N[C@H](C(=O)N[C@@H](CC(C)C)C(=O)N[C@@H](C)C(=O)N[C@@H](CCCCN)C(=O)N[C@@H](CCC(N)=O)C(=O)N[C@@H](Cc1ccccc1)C(=O)N[C@H](C(=O)N[C@@H](CCCCN)C(=O)O)[C@@H](C)O)[C@@H](C)CC [ALA‐A1] (H-RFFVPLFLVGILFPAILAKQFTK-OH) | – | – | did not exhibit a substantial anticancer effect | did not exhibit a substantial anticancer effect | did not exhibit a substantial anticancer effect | did not exhibit a substantial anticancer effect | did not exhibit a substantial anticancer effect | 5.6% ± 0.6%
CC[C@H](C)[C@H](NC(=O)[C@H](CCC(N)=O)NC(=O)[C@H](Cc1ccccc1)NC(=O)[C@@H](N)CC(C)C)C(=O)N[C@@H](CO)C(=O)N[C@@H](CC(N)=O)C(=O)N[C@@H](CCCCN)C(=O)N[C@@H](CC(C)C)C(=O)N[C@@H](Cc1c[nH]c2ccccc12)C(=O)N[C@@H](CS)C(=O)N[C@@H](CCCCN)C(=O)N[C@@H](CO)C(=O)N[C@@H](CO)C(=O)N[C@@H](CCC(N)=O)C(=O)N[C@H](C(=O)N1CCC[C@H]1C(=O)N[C@@H](CCC(N)=O)C(=O)N[C@@H](CO)C(=O)N[C@@H](CCCNC(=N)N)C(=O)N[C@@H](CC(N)=O)C(=O)O)C(C)C [ALA‐A4] (H-LFQISNKLWCKSSQVPQSRN-OH) | – | – | did not exhibit a substantial anticancer effect | did not exhibit a substantial anticancer effect | did not exhibit a substantial anticancer effect | did not exhibit a substantial anticancer effect | did not exhibit a substantial anticancer effect | 0.7% ± 0.6%
CC[C@H](C)[C@H](NC(=O)[C@H](CO)NC(=O)[C@@H]1CCCN1C(=O)[C@H](C)NC(=O)CNC(=O)[C@H](CC(C)C)NC(=O)[C@H](CCCCN)NC(=O)[C@H](CCCCN)NC(=O)[C@H](CCSC)NC(=O)[C@H](CCCNC(=N)N)NC(=O)[C@H](Cc1c[nH]c2ccccc12)NC(=O)[C@H](CCC(N)=O)NC(=O)[C@H](Cc1c[nH]c2ccccc12)NC(=O)[C@H](CCCNC(=N)N)NC(=O)[C@H](CCCNC(=N)N)NC(=O)[C@H](CS)NC(=O)[C@H](CCCCN)NC(=O)[C@@H](N)Cc1ccccc1)C(=O)N[C@H](C(=O)N[C@@H](CS)C(=O)N[C@H](C(=O)N[C@@H](CCCNC(=N)N)C(=O)O)C(C)C)[C@@H](C)O [BMP‐S6, reference compound] | – | – | – | – | – | – | exhibited cancer cytotoxicity | –
